Experimental data published in patent US8952177B2 (Janssen Pharmaceutica NV, priority 2013, dated 2015).
Structures can show the parent of a compound that is named as a salt.

Test system: leukotriene pathway in human whole blood (LTB4)
Assay: Human whole blood assay (LTB4 after calcium ionophore A23187 stimulation)
Format: cell-based
Details: human whole blood diluted 1:1 in RPMI, 15 min pre-incubation, A23187 7 μg/mL for 30 min at 37° Celsius
Method: The ability of the compounds of the present invention to treat a FLAP-mediated disease and/or disorder, or associated symptoms or complications thereof, was determined using the following procedures. Binding assay data represent the average value obtained from two different assay plates, with samples run in duplicate on each plate. Human whole blood assay data represent a single replicate on an assay plate using whole blood from at least one healthy donor.
An in vitro cellular assay was performed using human whole blood collected in heparin-containing tubes, which was used to test the ability of compounds to modulate the leukotriene pathway in human whole blood. The blood was diluted 1:1 in RPMI medium, pre-incubated for 15 min at 37° Celsius with test compounds at various concentrations, and then stimulated with calcium ionophore, A23187 (7 μg/mL), for 30 min at 37° Celsius. The samples were then centrifuged and plasma was removed. The plasma was diluted in assay buffer and LTB4 levels were measured using a commercial kit (Enzo Life Sciences). The concentration of each compound that was required for half-maximal inhibition (modulation) of […] (IC50) was calculated by a 4-parameter equation using the program GraphPad Prism (GraphPad software). For analysis, data are imported into 3DX and aggregated as the average of duplicates of the calculated ratios in order to calculate Ki and IC50 values. Numbers in parentheses are the number of runs for the assay.

SMILES | IC50 (TFA salt) [nM] | IC50 (Homo sapiens) [nM]
Cn1ccc(COc2ccc3nc(C4CCCC[C@H]4C(=O)O)n(Cc4ccc(Br)cc4)c3c2)n1 (mixture of isomers) [Example 40, racemic cis-2-{1-(4-Bromobenzyl)-6-[(1-methyl-1H-pyrazol-3-yl)methoxy]-1H-benzimidazol-2-yl}cyclohexanecarboxylic acid as the TFA salt] | 470 | 
Cn1ccc(COc2ccc3nc(C4CCCC[C@H]4C(=O)O)n(Cc4ccc(Br)cc4)c3c2)n1 (mixture of isomers) [Example 41, racemic trans-2-{1-(4-Bromobenzyl)-6-[(1-methyl-1H-pyrazol-3-yl)methoxy]-1H-benzimidazol-2-yl}cyclohexanecarboxylic acid as the TFA salt] | 6760 | 
Cn1ccc(COc2ccc3nc([C@H]4CCCC[C@H]4C(=O)O)n(Cc4ccc(OC(F)(F)F)cc4)c3c2)n1 (racemic) [Example 44, racemic cis-2-{6-[(1-Methyl-1H-pyrazol-3-yl)methoxy]-1-[4-(trifluoromethoxy)benzyl]-1H-benzimidazol-2-yl}cyclohexanecarboxylic acid] |  | 1010
Cn1ccc(COc2ccc3nc([C@H]4CCCC[C@@H]4C(=O)O)n(Cc4ccc(OC(F)(F)F)cc4)c3c2)n1 (racemic) [Example 54, racemic trans-2-{6-[(1-Methyl-1H-pyrazol-3-yl)methoxy]-1-[4-(trifluoromethoxy)benzyl]-1H-benzimidazol-2-yl}cyclohexanecarboxylic acid] |  | 2910
Cn1ccc(COc2ccc3nc([C@@H]4CCCC[C@@H]4C(=O)O)n(Cc4ccc(OC(F)(F)F)c(F)c4)c3c2)n1 (racemic) [Example 55, racemic cis-2-{1-[3-Fluoro-4-(trifluoromethoxy)benzyl]-6-[(1-methyl-1H-pyrazol-3-yl)methoxy]-1H-benzimidazol-2-yl}cyclohexanecarboxylic acid] |  | 3330
Cc1ccc(COc2cc(F)c3nc([C@@H]4CCCC[C@@H]4C(=O)O)n(Cc4ccc(Br)cc4)c3c2)nc1 (racemic) [Example 59, racemic cis-2-{1-(4-Bromobenzyl)-4-fluoro-6-[(5-methylpyridin-2-yl)methoxy]-1H-benzimidazol-2-yl}cyclohexanecarboxylic acid] |  | 190
Cc1ccc(COc2cc(F)c3nc([C@H]4CCCC[C@@H]4C(=O)O)n(Cc4ccc(Br)cc4)c3c2)nc1 (racemic) [Example 62, racemic trans-2-{1-(4-Bromobenzyl)-4-fluoro-6-[(5-methylpyridin-2-yl)methoxy]-1H-benzimidazol-2-yl}cyclohexanecarboxylic acid] |  | 970
Cc1ccc(COc2cc(F)c3nc(C4[C@H](C(=O)O)C4(C)C)n(Cc4ccc(Br)cc4)c3c2)nc1 (mixture of isomers) [Example 63, racemic cis-3-{1-(4-Bromobenzyl)-4-fluoro-6-[(5-methylpyridin-2-yl)methoxy]-1H-benzimidazol-2-yl}-2,2-dimethylcyclopropanecarboxylic acid] |  | 1080
Cc1ccc(COc2cc(F)c3nc(C4CCCC[C@H]4C(=O)O)n(Cc4ccc(OC(F)(F)F)cc4)c3c2)nc1 (mixture of isomers) [Example 66, racemic cis-2-{4-Fluoro-6-[(5-methylpyridin-2-yl)methoxy]-1-[4-(trifluoromethoxy)benzyl]-1H-benzimidazol-2-yl}cyclohexanecarboxylic acid as the TFA salt] |  | 590
Cc1ccc(COc2cc(F)c3nc(C4CCCC[C@@H]4C(=O)O)n(Cc4ccc(OC(F)(F)F)cc4)c3c2)nc1 (mixture of isomers) [Example 67, racemic trans-2-{4-Fluoro-6-[(5-methylpyridin-2-yl)methoxy]-1-[4-(trifluoromethoxy)benzyl]-1H-benzimidazol-2-yl}cyclohexanecarboxylic acid as the TFA salt] |  | 1080
Cc1ccc(Cn2c(C3CCCC[C@H]3C(=O)O)nc3c(F)cc(OCc4ccc(C)cn4)cc32)cc1 (mixture of isomers) [Example 68, racemic cis-2-{4-Fluoro-1-(4-methylbenzyl)-6-[(5-methylpyridin-2-yl)methoxy]-1H-benzimidazol-2-yl}cyclohexanecarboxylic acid as the TFA salt] |  | 430
Cc1ccc(Cn2c(C3CCCC[C@@H]3C(=O)O)nc3c(F)cc(OCc4ccc(C)cn4)cc32)cc1 (mixture of isomers) [Example 70, racemic trans-2-{4-Fluoro-1-(4-methylbenzyl)-6-[(5-methylpyridin-2-yl)methoxy]-1H-benzimidazol-2-yl}cyclohexanecarboxylic acid as the TFA salt] |  | 930
Cc1ccc(COc2cc(F)c3nc(C4[C@H](C(=O)O)C4(C)C)n(Cc4ccc(OC(F)(F)F)cc4)c3c2)nc1 (mixture of isomers) [Example 74, racemic cis-3-{4-Fluoro-6-[(5-methylpyridin-2-yl)methoxy]-1-[4-(trifluoromethoxy)benzyl]-1H-benzimidazol-2-yl}-2,2-dimethylcyclopropanecarboxylic acid as the TFA salt] |  | 2110
Cc1ccc(COc2cc(Cl)c3nc(C4CCCC[C@H]4C(=O)O)n(Cc4ccc(Br)cc4)c3c2)nc1 (mixture of isomers) [Example 75, racemic cis-2-{1-(4-Bromobenzyl)-4-chloro-6-[(5-methylpyridin-2-yl)methoxy]-1H-benzimidazol-2-yl}cyclohexanecarboxylic acid] |  | 440
Cc1ccc(COc2cc(Cl)c3nc([C@@H]4[C@H](C(=O)O)C4(C)C)n(Cc4ccc(Br)cc4)c3c2)nc1 (racemic) [Example 76, racemic cis-3-{1-(4-Bromobenzyl)-4-chloro-6-[(5-methylpyridin-2-yl)methoxy]-1H-benzimidazol-2-yl}-2,2-dimethylcyclopropanecarboxylic acid] |  | 5710
Cc1ccc(COc2cc(Cl)c3nc(C4CCCC[C@@H]4C(=O)O)n(Cc4ccc(Br)cc4)c3c2)nc1 (mixture of isomers) [Example 77, racemic trans-2-{1-(4-Bromobenzyl)-4-chloro-6-[(5-methylpyridin-2-yl)methoxy]-1H-benzimidazol-2-yl}cyclohexanecarboxylic acid] |  | 3950
Cn1cc(Cl)c(COc2ccc3nc([C@@H]4CCCC[C@@H]4C(=O)O)n(Cc4ccc(Br)cc4)c3c2)n1 (racemic) [Example 81, racemic cis-2-{1-(4-Bromobenzyl)-6-[(4-chloro-1-methyl-1H-pyrazol-3-yl)methoxy]-1H-benzimidazol-2-yl}cyclohexanecarboxylic acid] |  | 200
Cn1ccc(COc2ccc3nc([C@@H]4CCCC[C@@H]4C(=O)O)n(Cc4ccc(N5CCC(F)(F)CC5)cc4)c3c2)n1 (racemic) [Example 86, racemic cis-2-{1-[4-(4,4-Difluoropiperidin-1-yl)benzyl]-6-[(1-methyl-1H-pyrazol-3-yl)methoxy]-1H-benzimidazol-2-yl}cyclohexanecarboxylic acid] |  | 1750
Cn1ccc(COc2ccc3nc([C@@H]4CCCC[C@@H]4C(=O)O)n(Cc4ccc(N5CCCCC5)cc4)c3c2)n1 (racemic) [Example 88, racemic cis-2-{6-[(1-Methyl-1H-pyrazol-3-yl)methoxy]-1-(4-piperidin-1-ylbenzyl)-1H-benzimidazol-2-yl}cyclohexanecarboxylic acid] |  | 820
Cn1ccc(COc2cc3c(cc2F)nc([C@@H]2CCCC[C@@H]2C(=O)O)n3Cc2ccc(OC(F)(F)F)cc2F)n1 (racemic) [Example 90, racemic cis-2-{5-Fluoro-1-[2-fluoro-4-(trifluoromethoxy)benzyl]-6-[(1-methyl-1H-pyrazol-3-yl)methoxy]-1H-benzimidazol-2-yl}cyclohexanecarboxylic acid] |  | 850
Cn1ccc(COc2cc(F)c3nc([C@H]4CCCC[C@H]4C(=O)O)n(Cc4ccc(C#N)cc4)c3c2)n1 (racemic) [Example 98, racemic cis-2-{1-(4-Cyanobenzyl)-4-fluoro-6-[(1-methyl-1H-pyrazol-3-yl)methoxy]-1H-benzimidazol-2-yl}cyclohexanecarboxylic acid as the HCl salt] |  | 5720
Cc1ccc(COc2ccc3nc([C@@H]4CCCC[C@@H]4C(=O)O)n(Cc4ccc(OC(F)(F)F)cc4Br)c3c2)nc1 (racemic) [Example 102, racemic cis-2-{1-[2-Bromo-4-(trifluoromethoxy)benzyl]-6-[(5-methylpyridin-2-yl)methoxy]-1H-benzimidazol-2-yl}cyclohexanecarboxylic acid as the HCl salt] |  | 1030
Cc1ccc(COc2ccc3nc([C@@H]4CCCC[C@@H]4C(=O)O)n(Cc4ccc(OC(F)(F)F)c(C)c4)c3c2)nc1 (racemic) [Example 109, racemic cis-2-{6-[(5-Methylpyridin-2-yl)methoxy]-1-[3-methyl-4-(trifluoromethoxy)benzyl]-1H-benzimidazol-2-yl}cyclohexanecarboxylic acid] |  | 360
Cc1ccc(COc2ccc3nc(C4[C@H](C(=O)O)C4(C)C)n(Cc4ccc(Br)cc4)c3c2)nc1 (mixture of isomers) [Example 111, racemic cis-3-{1-(4-Bromobenzyl)-6-[(5-methylpyridin-2-yl)methoxy]-1H-benzimidazol-2-yl}-2,2-dimethylcyclopropanecarboxylic acid as the TFA salt] |  | 800
